Here are results for one compound from US9447053B2, “Process for the preparation of calcobutrol” (Bayer Intellectual Property GMBH, priority 2009, dated 2016).

The nature of series [1]: Properties of the Calcobutrol product and of Gadovist solutions prepared from it. To be noted: product of the process. The class given is physicochemical. The source says:
The Calcobutrol prepared in this manner is characterised by a very high quality. […] The whole process, from Gadobutrol to Calcobutrol, is characterised by a high reproducibility and workability. The total yield of 91.2% is very good. […] The sodium salt of Calcobutrol is obtained through addition of a stoichiometric amount of sodium hydroxide in situ.

Series [2] can be described thus: pH-potentiometric equilibrium titrations of the ligand (butrol) in the presence of Ca2+ ions. The class given is physicochemical. As to the method:
The thermodynamic stability constant of Calcobutrol and the acid dissociation constant have been determined by pH-potentiometric equilibrium titrations of the ligand (butrol) in the presence of Ca^2+ ions (at 25° C., in 0.1 N KCl) at different ratios of Ca^2+:ligand.
Based on these measured values, the distribution of calcium between free calcium ion, neutral complex (Calcobutrol, ligand has two negative charges), and anionic complex (ligand has three negative charges) can be calculated for different pH values. […] Due to this equilibrium between the calcium-containing species, preparative methods in aqueous solution will lead to some impurities.

Where only a bound is given, the exact number is not on record here.

Consider `O=C([O-])CN1CCN(CC(=O)[O-])CCN(C(CO)C(O)CO)CCN(CC(=O)[O-])CC1.O=C([O-])CN1CCN(CC(=O)[O-])CCN(C(CO)C(O)CO)CCN(CC(=O)[O-])CC1.[Ca+2].[Ca+2].[Ca+2]` (centres unmarked) [Calcobutrol, calcium complex of 10-(2,3-Dihydroxy-1-(hydroxymethyl)propyl)-1,4,7,10-tetraazacyclodecane-1,4,7-triacetic acid], for which, in series [1], the solubility in water entry was “soluble in water” and the storage stability result is “stable for storage”. Also, the “thermodynamic stability constant log(KCaL-)” value in series [2] (25° C., 0.1 N KCl, different ratios of Ca2+:ligand, KCaL-=[CaL-]/[Ca2+][L3-]) was 14.67±0.02. In series [2] (25° C., 0.1 N KCl, Ka=[CaL-][H+]/[CaLH]), the “acid dissociation constant pKa” value came to 3.39±0.12. Also, the “share of neutral complex among the calcium-containing species” value in series [2] (calculated from measured constants, at any pH (FIG. 1)) is listed as at most 20%.
